Measurements published in PubChem BioAssay AID2305 (GlaxoSmithKline (GSK), 2010).

The compounds below were run on P. falciparum 3D7 growth, pLDH absorbance (assay: blood-stage malaria parasite growth potency – strain 3D7, dose response (AID 2305)).

First: Cc1cccc2[nH]c(-c3ccc(-c4ccc(CNCc5cccc(N)c5)cc4)s3)nc12
Second: Cc1cccc2[nH]c(-c3ccc(-c4ccc(NC(=O)Nc5ccc(Cl)cc5)cc4)s3)nc12
The IC50 of the first is 5-fold higher: 750 nM for the first, 150 nM for the second. The second is the more potent here.

Compared with COc1ccc(C(=O)N2CCc3cc4nccc(N5CCN6CCC[C@H]6C5)c4cc32)cc1, O=C(/C=C/c1ccc(C(F)(F)F)cc1)N1CCc2cc3nccc(N4CCN5CCC[C@H]5C4)c3cc21 is 1.6-fold higher in IC50: 950 nM for the first, 1510 nM for the second. The first is the more potent here.

Compared with COc1ccc2c(c1)ncn2-c1cc(OCc2ccncc2Br)c(C(N)=O)s1, CCOCn1c(-c2ccccc2)cc2c3c(N)nc(N)nc3ccc21 is 3.2-fold lower in IC50: 610 nM for the first, 190 nM for the second.

CO/C(=C\C=C\c1cc2cc(Cl)c(Cl)cc2[nH]1)C(=O)NCCCN1CCC(c2ccccc2)CC1 and N#Cc1cccc(NC(=O)NC2CCN(CCCCCNC(=O)[C@@H]3C[C@H]3c3ccc(Cl)c(Cl)c3)CC2)c1 are within 1.5-fold of each other in IC50: 910 nM for the first, 790 nM for the second.

CC(=O)Nc1nc(C(=O)Nc2ccc(-c3ccc(-c4nc5c(C)cccc5[nH]4)cc3)cc2)cs1 and Cc1cccc2[nH]c(-c3cccc(-c4cccc(NC(=O)Nc5ccc(Cl)cc5)c4)c3)nc12 are within 1.5-fold of each other in IC50: 180 nM for the first, 240 nM for the second.

Compared with COc1cc2nc(NCCc3ccccc3)nc(NCCCc3ccccc3)c2cc1OC, Cc1ccccc1Nc1nc(NCCCO)c2ccccc2n1 is 2.6-fold higher in IC50: 160 nM for the first, 410 nM for the second.

Oc1ccc(-c2cncc(NCc3ccc(F)c(F)c3)c2)cc1 and Cc1cc(-c2cccc(CNCCc3ccc(Cl)cc3)c2)cnc1N are within 1.5-fold of each other in IC50: 770 nM for the first, 1100 nM for the second.

COc1ccc(CC2(CO)CCN(Cc3ccc(O)c(Cl)c3)CC2)cc1 and CC(C)c1ccc(NC(=O)c2ccc(CN3CCCN(Cc4cccc(O)c4)CC3)cc2)cc1 are within 1.5-fold of each other in IC50: 860 nM for the first, 680 nM for the second.

COc1cc(F)c2ncc(Cl)c(CCN3CCC(NCc4ccc5c(c4)OCCO5)CC3)c2c1 and COc1ccc2nccc(NCC3(O)CCC(NCc4cc5c(cn4)OCCO5)CC3)c2n1 (stereo not given) are within 1.5-fold of each other in IC50: 470 nM for the first, 660 nM for the second.

Compared with Cc1cccc2[nH]c(-c3cccc(-c4cccc(NC(=O)c5ccc(=O)[nH]n5)c4)c3)nc12, O=C(Nc1ccc(-c2cccc(-c3nc4ccccc4[nH]3)c2)cc1)Nc1ccsc1 is 3.2-fold lower in IC50: 790 nM for the first, 250 nM for the second. The second is the more potent here.

First: CCN(CCCN1CCCCC1)c1cc(C)nc(Nc2ccc(C)cc2Br)n1
Second: CCOc1cc(C)ccc1C1CCN(CCCCNC(=O)c2coc(-c3ccc(Cl)cc3)c2)CC1
The IC50 of the first is 5.4-fold lower: 170 nM for the first, 910 nM for the second. The first is the more potent here.

First: Clc1ccc(Nc2nc3ccc(Cl)cc3nc2Nc2ccc(Cl)cc2)cc1
Second: Brc1ccc(Nc2nc3ccccc3nc2Nc2ccc(Br)cc2)cc1
The IC50 of the first is 6-fold lower: 130 nM for the first, 780 nM for the second.

First: O=C(/C=C/c1ccc(Cl)c(Cl)c1)NCCCCCN1CCC(CCNC(=O)/C=C/c2cc(C(F)(F)F)ccc2F)CC1
Second: O=C(/C=C/c1ccc(C(F)(F)F)cc1)NCCCCCN1CCN(C(=O)Nc2ccc(F)c(Cl)c2)CC1
The IC50 of the first is 1.6-fold lower: 770 nM for the first, 1210 nM for the second. The first is the more potent here.

CC(C)CNCc1ccc(-c2cccc(CN(C(=O)NC3CCCCC3)C3CCN(Cc4ccccc4)CC3)c2)cc1 and CN1CCN(CCCN(Cc2ccc(-c3cccc(CNCc4ccc5c(c4)OCO5)c3)cc2)C(=O)NC2CCCCC2)CC1 are within 1.5-fold of each other in IC50: 800 nM for the first, 990 nM for the second.

Compared with COc1ccccc1C1CC(c2ccc(Br)cc2)=NN1C(=O)c1ccccc1 (stereo not given), COc1ccccc1NC(=O)Nc1cccc(-c2ccc(-c3nc4ccc(C(F)(F)F)cc4[nH]3)cc2)c1 is 3.6-fold lower in IC50: 1110 nM for the first, 310 nM for the second.

Compared with CN1CCC(Oc2ccc(CN3CC[C@H](NC(=O)c4ccc(Cl)c(F)c4)C3)c3ccccc23)C1 (stereo not given in full), O=C(Nc1ccc2nccc(N3CCN4CCC[C@H]4C3)c2c1)c1ccc(Cl)c(Cl)c1 is 2.2-fold lower in IC50: 740 nM for the first, 340 nM for the second. The second is the more potent here.

Going from O=C(C=Cc1cccs1)Nc1ccc(-c2nc3ccccc3[nH]2)cc1 to c1ccc(CNCc2cccc(-c3csc(-c4nc5ccccc5[nH]4)c3)c2)cc1, the IC50 falls from 1140 nM to 460 nM (2.5-fold).

Clc1cc(Nc2ccnc3ccc(Br)cc23)ccc1Oc1ccc2ccccc2c1Cl and Fc1ccc2nccc(NN=Cc3ccccc3Cl)c2c1 are within 1.5-fold of each other in IC50: 730 nM for the first, 920 nM for the second.

Compared with CN1c2ccc([N+](=O)[O-])cc2C(C)(C)C12C=Cc1cc(Br)cc([N+](=O)[O-])c1O2 (stereo not given), NC(N)=NN=Cc1cc([N+](=O)[O-])ccc1Sc1ccccc1CO is 1.9-fold higher in IC50: 780 nM for the first, 1460 nM for the second.

First: O=C(NC1CCCc2ccccc21)[C@@H]1CCCN1C(=O)c1ccc(O)c(-c2cccc([N+](=O)[O-])c2)c1 (stereo not given in full)
Second: O=C(c1cc(-c2ccccc2O)on1)N1CCN(C(c2ccccc2)c2ccccc2)CC1
The IC50 of the first is 2-fold higher: 680 nM for the first, 340 nM for the second.

First: c1cc2nc(CCCCc3nc4ccc(C5=N[C@H]6CCCC[C@H]6N5)cc4[nH]3)[nH]c2cc1C1=N[C@H]2CCCC[C@H]2N1
Second: Cc1noc(-c2ccc3c(c2)CCN(CCC2CCC(NC(=O)/C=C/c4cccc(Cl)c4)CC2)CC3)n1 (stereo not given)
The IC50 of the first is 2.4-fold lower: 410 nM for the first, 1000 nM for the second. The first is the more potent here.

COc1ccccc1C1CCN(C2CCC(NC(=O)/C=C/c3cccc(C(F)(F)F)c3)CC2)CC1 (stereo not given) and O=C(/C=C/c1ccc(Cl)c(Cl)c1)N1CCC(CN2CCC(c3c[nH]c4ccncc34)CC2)CC1 are within 1.5-fold of each other in IC50: 810 nM for the first, 730 nM for the second.

CC(C)CCN(Cc1cncn1Cc1cccc(C(F)(F)F)c1)C(=O)c1cncc(-c2ccccc2)c1 and CCCC(C)Nc1nc(C)cc(N[C@@H](Cc2ccccc2)C(=O)NCc2cccc(F)c2)n1 (stereo not given in full) are within 1.5-fold of each other in IC50: 770 nM for the first, 880 nM for the second.

O=C(NC(NC(=S)Nc1ccc([N+](=O)[O-])cc1)C(Cl)(Cl)Cl)c1cccc(Cl)c1 (stereo not given) and O=C1NC(=O)C(c2ccc(Cl)cc2)=C1Nc1cccc(S(=O)(=O)C(F)(F)F)c1 are within 1.5-fold of each other in IC50: 730 nM for the first, 740 nM for the second.

CNC(=O)CSc1nnc(-c2ccc(C)cc2)c(-c2ccc(C)cc2)n1 and CCc1ccc(NC(=O)N(CCCn2ccnc2)Cc2csc(-c3ccc(CNCc4ccccc4)cc3)n2)cc1 are within 1.5-fold of each other in IC50: 600 nM for the first, 760 nM for the second.

COc1ccc(S(=O)(=O)N2CCC(NS(=O)(=O)c3ccc(F)cc3)CC2)cc1 and COc1ccc2nccc([C@@H](O)CN3CCC(NCc4cc5ccccc5cn4)CC3)c2n1 are within 1.5-fold of each other in IC50: 1330 nM for the first, 920 nM for the second.

CN(C)Cc1ccc2nc(-c3cccc(Cc4cc(Cl)ccc4OCc4ccc(Cl)cc4F)n3)[nH]c2c1 and O=c1cc(NCCCNCc2ccc(Cl)c(Cl)c2)[nH]c2ccc(Oc3ccccc3)cc12 are within 1.5-fold of each other in IC50: 1130 nM for the first, 850 nM for the second.

Fc1cccc2sc(Nc3nc(-c4ccccn4)cs3)nc12 and CS(=O)(=O)CCNCc1nc(-c2ccc3c(Nc4ccc(F)c(O)c4)ccnc3c2)cs1 are within 1.5-fold of each other in IC50: 910 nM for the first, 820 nM for the second.

First: CC(C)(O)CC(C)(C)c1cc(Cl)ccc1O
Second: CN=C(Nc1c(Cl)cccc1Cl)N(C)C
The IC50 of the first is 1.8-fold lower: 450 nM for the first, 820 nM for the second. The first is the more potent here.

Compared with CC(C)(C)C1CCc2nc(N)nc(N)c2C1 (stereo not given), CCN(CC)c1nc(N)c2c(N)nc3c(c2c1C#N)C(=O)CN3Cc1ccccc1 is 7-fold higher in IC50: 10 nM for the first, 70 nM for the second. The first is the more potent here.

Compared with CN1CCN(CCCNCc2cccc(Nc3nccc(Nc4ccc(Oc5ccccc5)cc4)n3)c2)CC1, Cc1cc(F)ccc1-c1nc(NCCCNCCc2ccccc2)nc2c1ccc(=O)n2-c1c(F)cccc1F is 4-fold lower in IC50: 760 nM for the first, 190 nM for the second.

First: Cc1c2ccncc2c(C)c2c1[nH]c1ccccc12
Second: CN(C)CCCNc1ncnc2c1[nH]c1ccc(Br)cc12
The IC50 of the first is 2.5-fold higher: 800 nM for the first, 320 nM for the second.

Compared with CCOc1ccc(C(C)NC(=O)C2COc3ccccc3O2)cc1OCC (stereo not given), CCCCC(CC)CN1C(=O)C(c2ccccc2)(c2ccccc2)N=C1N (stereo not given) is 4.7-fold lower in IC50: 900 nM for the first, 190 nM for the second.

O=C(CCCCCNC(=O)c1ccc(O)c(-c2ccc(Cl)c(Cl)c2)c1)NCCc1ccc(Cl)c(Cl)c1 and CCN(CC)C(=NCCCCCCN=C(/N=C(\N)Nc1ccc(Cl)c(Cl)c1)N(CC)CC)/N=C(\N)Nc1ccc(Cl)c(Cl)c1 are the same in IC50: 760 nM for the first, 760 nM for the second.

First: CCNc1cc(C(=O)N[C@@H](Cc2ccccc2)[C@H](O)CNC2(CCC(C)C)CC2)cc(N2CCCCS2(=O)=O)c1
Second: COCCNCc1ncsc1-c1ccc2c(Nc3cc(O)c(Cl)cc3F)ccnc2c1
The IC50 of the first is 2-fold higher: 1080 nM for the first, 550 nM for the second. The second is the more potent here.
